Tests used:
[1] = biological target: T1, LYVE-1 present on the lymph endothelium (swine hindlimb lymph vessel) (Sus scrofa, UniProt I3LTD0); assay: Staining of lymph vessels with HA-NIR, compared with ICG; format: in vivo
T1 construct: LYVE-1 present on the lymph endothelium; from tissue; host or cells: live white Yorkshire swine, hindlimb lymph vessels (lymph endothelium)
T1 sequence (I3LTD0 25-326): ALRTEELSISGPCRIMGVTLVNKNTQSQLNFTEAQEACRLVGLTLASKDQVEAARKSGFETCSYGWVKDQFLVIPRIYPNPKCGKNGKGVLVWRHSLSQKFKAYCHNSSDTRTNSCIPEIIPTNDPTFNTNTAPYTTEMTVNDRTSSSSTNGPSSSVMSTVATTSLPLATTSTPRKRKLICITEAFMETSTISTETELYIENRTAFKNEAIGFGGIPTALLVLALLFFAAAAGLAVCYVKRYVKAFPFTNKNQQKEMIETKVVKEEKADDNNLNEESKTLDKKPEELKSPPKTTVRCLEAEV
Procedure: Four, two-month old, 60 lb white Yorkshire swine (K Bar Livestock, HC 69 Box 270 Sabinal, Tex.) were imaged using protocols which were approved by the Baylor College of Medicine Institutional Animal Care and Use Committee. The animals were anesthetized, intubated, and maintained with isoflurane. Animal body temperature was maintained at 100° F. using a warming blanket. At the end of the procedure, the animals were euthanized and lymph nodes resected with fluorescence guidance.
Continuous-wave optical imaging of the fluorescent NIR dyes was performed with a custom built intensified charged-coupled device (CCD). Reynolds J S, Troy T L, and Sevick-Muraca E M. Multipixel techniques for frequency-domain photon migration imaging. Biotechnol Prog 13: 669-680, 1997., incorporated herein by reference in its entirety for all purposes. Briefly, the device had three principal components: 1) a NIR-sensitive image intensifier (model FS9910C ITT Night Vision, Roanoke, Va.); 2) a 16-bit dynamic range, frame transfer CCD camera (Roper Scientific, Tucson, Ariz.); and 3) a 785-nm laser diode (Thorlabs) used to provide the excitation light for activating ICG and hyaluronan-NIR. The 785-nm laser diode beam was expanded by using a planoconvex lens and a holographic optical diffuser such that approximately 0.08 m^2 of the swine's body was illuminated. A 785-nm holographic notch band rejection filter (model HNPF-785.0-2.0, Kaiser Optical Systems, Ann Arbor, Mich.) and an 830-nm image quality bandpass filter (model 830.0-2.0, Andover, Salem, N.H.) were placed before the 28-mm Nikkor lens (Nikon) to selectively reject the excitation light and pass the emitted 830-nm wavelength. […]
Images were processed using MATLAB (The Mathworks, Natick, Mass.), ImageJ (National Institutes of Health, Bethesda, Md.), and V++ (Digital Optics, Auckland, New Zealand). […] To reveal the frequency of the pulsatile flow, which is a characteristic of pumping lymphatics, the mean fluorescence intensity from a fixed region of interest on a lymph channel was selected and plotted as a function of imaging time. […]

[2] = cited from earlier work

propulsion of packets ([1]; intradermal, 64 μM HA-NIR or 32 μM ICG, swine hindlimb vessel) | Compound | normalized fluorescent intensity at fixed ROI as a function of time (FIG. 10C) ([1]; image acquisition 6 min, leg lymph vessel) | fluorescent intensity as a function of vessel length and time (FIGS. 11C, 11D) ([1]; swine lymph vessels) | fraction broken down in the liver ([2]; liver) | fraction degraded in lymph nodes ([2]; lymph nodes)
observed | CC1(C)C(/C=C/C=C/C=C/C=C2\N(CCCCS(=O)(=O)O)c3ccc4ccccc4c3C2(C)C)=[N+](CCCCS(=O)(=O)[O-])c2ccc3ccccc3c21 [ICG, indocyanine green] | fluctuation and net reduction of intensity | varies with time and length along the vessel | – | –
– | hyaluronic acid [HA] | – | – | 10% | 90%

Source: US7875260B2, “Imaging agents for functional imaging of lymphatic structures” (Baylor College of Medicine, priority 2006, dated 2011)
